Test results as given in US20040072319A1, “Molecules that modulate ubiquintin-dependent proteolysis and methods for identifying same” (priority 2003, published 2004).
Numbering of substitutions follows the chain as printed. Peptide text beside a SMILES is read from it.

Key:
SCFcdc4 = biological target: T1, SCFcdc4 (Saccharomyces cerevisiae, UniProt P07834); assay: In vitro ubiquitination of substrates by SCFcdc4 in presence of peptide; type: biochemical, yeast; settings: excess peptide
T1 construct: made in house; host or cells: SF9 cells infected with recombinant baculoviruses
T1 sequence (P52286 whole entry partner, one chain of several): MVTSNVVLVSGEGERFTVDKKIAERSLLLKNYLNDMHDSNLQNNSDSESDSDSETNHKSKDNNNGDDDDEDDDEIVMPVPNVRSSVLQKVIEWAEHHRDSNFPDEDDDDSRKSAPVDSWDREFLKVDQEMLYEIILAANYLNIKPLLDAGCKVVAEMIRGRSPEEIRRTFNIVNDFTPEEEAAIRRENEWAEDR
T1 sequence (Q12018 whole entry partner, one chain of several): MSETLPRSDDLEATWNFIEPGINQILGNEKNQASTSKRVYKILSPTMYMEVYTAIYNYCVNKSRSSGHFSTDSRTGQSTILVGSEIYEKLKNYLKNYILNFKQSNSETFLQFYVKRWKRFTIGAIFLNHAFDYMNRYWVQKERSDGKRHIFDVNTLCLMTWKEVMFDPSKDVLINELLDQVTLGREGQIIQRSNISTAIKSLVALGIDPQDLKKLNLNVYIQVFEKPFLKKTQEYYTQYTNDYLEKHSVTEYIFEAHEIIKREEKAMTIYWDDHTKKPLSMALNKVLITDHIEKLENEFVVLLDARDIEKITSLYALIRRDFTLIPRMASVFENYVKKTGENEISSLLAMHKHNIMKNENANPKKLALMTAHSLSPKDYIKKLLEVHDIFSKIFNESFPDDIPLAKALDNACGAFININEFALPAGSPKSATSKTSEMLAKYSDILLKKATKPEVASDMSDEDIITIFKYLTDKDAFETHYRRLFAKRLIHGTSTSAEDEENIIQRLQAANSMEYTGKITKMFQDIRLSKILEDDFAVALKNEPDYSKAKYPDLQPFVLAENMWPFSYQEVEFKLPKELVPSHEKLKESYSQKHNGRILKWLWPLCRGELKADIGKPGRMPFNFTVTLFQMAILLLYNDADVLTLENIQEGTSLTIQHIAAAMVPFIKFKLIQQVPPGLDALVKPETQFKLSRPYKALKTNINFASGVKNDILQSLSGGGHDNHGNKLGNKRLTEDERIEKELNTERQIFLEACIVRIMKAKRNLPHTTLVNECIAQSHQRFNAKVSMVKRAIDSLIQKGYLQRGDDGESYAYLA
Text: (§1) SCF complexes were purified from SF9 cells infected with recombinant baculoviruses and used in binding assays and ubiquitination reactions essentially as described (7). Gst-Skp1 expressed in BL21 codon plus cells (Stratagene) then purified on glutathione resin was used to capture full Cdc4 from insect cell lysates. Truncated forms of Cdc4 were enriched prior to Gst-Skp1 capture by affinity purification of hexahistidine fusion proteins on a metal chelate column. The Skp1-Cdc4 complexes were released from the Gst moiety by cleavage with TEV protease and further purified by size exclusion chromatography on a Superdex S75 or S200 column. Biotin labeled […]p[…] (SEQ ID NO. 1), […] (SEQ ID NO. 12), and APPLSQEpTFSDLWK (SEQ ID NO. 13) were synthesized by addition of d-biotin (Sigma) with an Fmoc-e-aminocaproic acid (Bachem) spacer to carboxy-terminal peptides. […] Streptavidin-agarose beads (Sigma) were incubated in the presence of biotinylated peptide for 90 min. at 4° C. Beads were washed 3 times and then incubated with lysates from Cdc4 expressing baculovirus infected Sf9 cells. Beads were washed 4 times, after which SDS-PAGE gel loading buffer was added and the beads were boiled for 5 min. Proteins were separated by SDS-PAGE and visualized by silver stain. […]

Cdc4 [1] = biological target: T2, Cdc4 (Saccharomyces cerevisiae, UniProt P07834); assay: Capture of Cdc4 from baculovirus-infected insect cell lysates by biotinylated peptide; type: binding, yeast; design: made in house; host or cells: Sf9 insect cells infected with recombinant baculovirus (crude lysate); settings: insect cells infected with Cdc4 baculovirus
Text: (§2) SCF complexes were purified from SF9 cells infected with recombinant baculoviruses and used in binding assays and ubiquitination reactions essentially as described (7). Gst-Skp1 expressed in BL21 codon plus cells (Stratagene) then purified on glutathione resin was used to capture full Cdc4 from insect cell lysates. Truncated forms of Cdc4 were enriched prior to Gst-Skp1 capture by affinity purification of hexahistidine fusion proteins on a metal chelate column. The Skp1-Cdc4 complexes were released from the Gst moiety by cleavage with TEV protease and further purified by size exclusion chromatography on a Superdex S75 or S200 column. Biotin labeled […]p[…] (SEQ ID NO. 1), […] (SEQ ID NO. 12), and APPLSQEpTFSDLWK (SEQ ID NO. 13) were synthesized by addition of d-biotin (Sigma) with an Fmoc-e-aminocaproic acid (Bachem) spacer to carboxy-terminal peptides. […] Streptavidin-agarose beads (Sigma) were incubated in the presence of biotinylated peptide for 90 min. at 4° C. Beads were washed 3 times and then incubated with lysates from Cdc4 expressing baculovirus infected Sf9 cells. Beads were washed 4 times, after which SDS-PAGE gel loading buffer was added and the beads were boiled for 5 min. Proteins were separated by SDS-PAGE and visualized by silver stain. Peptide out-competition of phosphorylated substrates was carried out with immunopurified Skp1^FLAG-Cdc4 from insect cells, which were incubated with phosphopeptides prior to addition of phospho-Sic1 or phospho-Cyclin E-Cdk2. For kinase inhibition assays, purified recombinant Clb5-Cdc28 complex (30 ng) was incubated with mutant forms of Sic1 (40 ng) and histone H1 (HH1, 2 μg) for 1 h on ice prior to addition of [^32P]-γ-ATP and incubation at 25° C. for 30 min. Samples were separated by SDS-PAGE and visualized by autoradiography.

Cdc4 [2] = biological target: T2, Cdc4; assay: Fluorescence polarization equilibrium binding of peptides to Cdc4; design: made in house; host or cells: Cdc4: baculovirus-infected insect (Sf9) cells; Gst-Skp1: E. coli BL21 codon plus; species or system yeast; settings: Hill plot of peptide binding to Cdc4
Procedure: Equilibrium binding constant determination was carried out using fluorescence polarization on a Beacon 2000 Fluorescence Polarization System (Pan Vera, Wis.) equipped with a 100 μL sample chamber. Fluorescein-labeled probes were prepared through the reaction of carboxyterminal-peptides with 5-(and-6)-carboxyfluorescein succinimidyl ester (Molecular Probes), purified by reverse-phase HPLC, and confirmed by mass spectrometry. Binding studies were conducted with 5 nM fluorescein-labeled probe dissolved in PBS containing 100 μg/ml BSA and 1 mM dithiothreitol. Reaction mixtures were allowed to equilibrate for 10 minutes at room temperature prior to each measurement. All fluorescence polarization measurements were conducted at 22° C.
Target sequence in this assay (P52286 whole entry partner, one chain of several, the tested form may be a part): as the sequence (P52286 whole entry partner, one chain of several) above

Cdc4-Skp1 complexes = biological target: T3, Cdc4-Skp1 complexes (Saccharomyces cerevisiae, UniProt P07834); assay: Peptide out-competition of phosphorylated substrates binding to Cdc4-Skp1; design: species or system yeast; settings: peptide 3, 17, 68 μM in FIG. 6f
T3 construct: made in house; host or cells: insect cells (baculovirus)
T3 sequence (P52286 whole entry partner, one chain of several): as above
Text: as §2

Cdc4 [3] = biological target: T4, Cdc4 (Saccharomyces cerevisiae, UniProt P07834); assay: Capture of Cdc4 from baculovirus-infected insect cell lysates by biotinylated peptide; type: binding, yeast; settings: insect cells infected with Cdc4 baculovirus
T4 construct: made in house; host or cells: Sf9 insect cells infected with recombinant baculovirus (crude lysate)
T4 sequence (P07834 whole entry, looked up): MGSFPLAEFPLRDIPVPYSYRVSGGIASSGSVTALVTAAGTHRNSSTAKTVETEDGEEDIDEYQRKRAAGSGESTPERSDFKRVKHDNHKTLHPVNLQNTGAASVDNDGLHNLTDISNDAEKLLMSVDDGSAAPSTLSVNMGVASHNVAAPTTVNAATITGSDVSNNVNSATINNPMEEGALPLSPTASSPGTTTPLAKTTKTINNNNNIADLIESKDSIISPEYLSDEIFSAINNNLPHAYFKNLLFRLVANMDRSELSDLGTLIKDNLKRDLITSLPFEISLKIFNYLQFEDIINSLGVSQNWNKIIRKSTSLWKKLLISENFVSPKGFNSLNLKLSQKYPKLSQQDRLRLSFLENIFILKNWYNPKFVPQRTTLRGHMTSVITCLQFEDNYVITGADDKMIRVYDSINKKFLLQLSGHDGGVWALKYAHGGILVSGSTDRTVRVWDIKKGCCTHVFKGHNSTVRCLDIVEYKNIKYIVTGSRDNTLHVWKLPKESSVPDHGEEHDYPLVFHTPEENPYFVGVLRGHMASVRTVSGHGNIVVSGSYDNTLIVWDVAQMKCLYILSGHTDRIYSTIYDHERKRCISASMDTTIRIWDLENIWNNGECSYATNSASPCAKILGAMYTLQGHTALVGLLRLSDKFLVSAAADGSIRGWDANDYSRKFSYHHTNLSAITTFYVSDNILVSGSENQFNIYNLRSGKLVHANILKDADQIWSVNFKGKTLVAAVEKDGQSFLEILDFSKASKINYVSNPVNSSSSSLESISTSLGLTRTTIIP
Text: as §1

Skp1-Cdc4 complex [4] = biological target: T5, Skp1-Cdc4 complex (yeast, UniProt P07834 1-779; P52286 1-194, limits assumed); assay: fluorescence polarization, 5 nM fluorescein-labeled peptide, Cdc4/Skp1 titrated
T5 construct: Purified complex (Gst removed by TEV, size exclusion) for fluorescence polarization and SPOTS arrays; also called Cdc4/Skp1; cdc4/skp1 complex
Target sequence in this assay (P52286 whole entry, chain 2 of 2, one chain of several): as the sequence (P52286 whole entry partner, one chain of several) above

[5] = biological target: Cdc4 (yeast F-box protein, recombinant, expressed in baculovirus-infected insect cells) (yeast) (UniProt P07834); assay: equilibrium binding
[6] = biological target: Cdc4 (yeast F-box protein, recombinant, expressed in baculovirus-infected insect cells) (yeast) (UniProt P07834); assay: equilibrium binding, fluorescence polarization
Skp1-Cdc4 complex [7] = biological target: T5, Skp1-Cdc4 complex; assay: fluorescence polarization
Target sequence in this assay (P52286 whole entry, one chain of several): as the sequence (P52286 whole entry partner, one chain of several) above

[8] = biological target: Cdc4 (yeast F-box protein, recombinant, expressed in baculovirus-infected insect cells) (yeast) (UniProt P07834); assay: equilibrium binding (Table in FIG. 3)
[9] = biological target: T6, Cdc4 (yeast F-box protein, recombinant, expressed in baculovirus-infected insect cells) (yeast, UniProt P07834 1-779); assay: capture of Gst-Sic1 on Cdc4^FLAG resin, anti-Sic1 blot
T6 construct: also called Cdc4^FLAG
T6 sequence (looked up): T4 sequence (P07834 whole entry, looked up)

## CC(C)C[C@H](NC(=O)CNC(=O)[C@H](CO)NC(=O)[C@@H]1CCCN1C(=O)[C@H](CC(C)C)NC(=O)[C@@H]1CCCN1C(=O)[C@H](CO)NC(=O)[C@H](C)N)C(=O)N[C@@H](CC(C)C)C(=O)N[C@H](C(=O)N1CCC[C@H]1C(=O)N1CCC[C@H]1C(=O)N[C@@H](CCC(N)=O)C(=O)N[C@@H](CO)C(=O)NCC(=O)N[C@@H](CCCCN)C(=O)N[C@@H](CCCCN)C(=O)N[C@@H](CCC(N)=O)C(=O)N[C@@H](CO)C(=O)O)[C@@H](C)OP(=O)(O)O [CycE-19mer, ASPLPSGLLpTPPQSGKKQS] (HELM PEPTIDE1{A.S.P.L.P.S.G.L.L.[C[C@@H](OP(=O)(O)O)[C@H](N[*:1])C(=O)[*:2]].P.P.Q.S.G.K.K.Q.S}$$$$V2.0)
SCFcdc4; listed as CycE19-pT380
  block of ubiquitination of SCFcdc4 substrates: able to out-compete
SCFcdc4; listed as cycE19P
  block of ubiquitination of SCFcdc4 substrates: blocked
Cdc4 [1]; listed as CycE19-pT380
  capture of Cdc4 from lysates by biotinylated peptide: able to capture Cdc4
Cdc4 [1]; listed as CycE^19-pT380
  capture of Cdc4 from lysates by biotinylated peptide: captures recombinant Cdc4
Cdc4 [1]; listed as cycE19P
  capture of Cdc4 from lysates by biotinylated peptide: capture of Cdc4
Cdc4 [1]; listed as cycEpT19mer
  capture of Cdc4 from lysates by biotinylated peptide: able to precipitate cdc4
Cdc4 [2]
  Hill coefficient: 0.99
Cdc4-Skp1 complexes; listed as CycE19-pT380
  competition with substrates (Sic1, cyclin E1, Far1) for binding to Cdc4: able to out-compete
Cdc4-Skp1 complexes; listed as CycE^19-pT380
  competition with substrates (Sic1, cyclin E1, Far1) for binding to Cdc4: out-competes binding of Sic1 and cyclin E1
Cdc4-Skp1 complexes; listed as cycE19P
  competition with substrates (Sic1, cyclin E1, Far1) for binding to Cdc4: able to compete
Cdc4-Skp1 complexes; listed as cycEpT
  competition with substrates (Sic1, cyclin E1, Far1) for binding to Cdc4: inhibits the interaction
Cdc4-Skp1 complexes; listed as cyclin E phosphopeptide
  competition with substrates (Sic1, cyclin E1, Far1) for binding to Cdc4: competed

## ASPLPSGLLTPPQSGKKQS [unphosphorylated peptide, biotin labeled unphosphorylated cyclin E1 19 residue control peptide, reference compound]
Cdc4 [3]; listed as non-phosphorylated CycE^19-pT380 peptide
  capture of Cdc4 from lysates by biotinylated peptide: does not
Cdc4 [3]; listed as unphosphorylated version of the peptide
  capture of Cdc4 from lysates by biotinylated peptide: failed to interact with cdc4

## Cdc 16 peptide LSKNLLpTPQEEWD
Skp1-Cdc4 complex [4]
  Kd: 900 nM
[5]
  Kd: 750 nM

## CycEpS-9mer GLLpSPPQSG (peptide)
[6]
  fold lower affinity (against the phosphothreonine cyclin E peptide): 6 fold
Skp1-Cdc4 complex [7]
  fold lower affinity (against the phosphothreonine peptide): 6 fold

## Gcn4-9mer FLPpTPVLED (peptide)
Skp1-Cdc4 complex [4]
  Kd: 880 nM
[8]
  Kd: 675 nM

B1: Sic1 6m (Sic1^9m with T33, T45 and S76 restored), Gst fusion (other, yeast, UniProt P38634 1-284, looked up)
chain: MAPSAPPRSRGTRYLAQPSGNTSSSALMQGQKTPQKPSQNLVPVTPSTTKSFKNAPLLAPPNSNMGMTAPFNGLTSPQRAPFPKSSVKRTLFQFESHDNGTVREEQEPLGRVNRILFPTQQNVDIDAAEEEEEGEVLLPPSRPTSARQLHLSLERDEFDQTHRKKIIKDVPGAPSDKVITFELAKNWNNNVPKNDARSQESEDEEDIIINPVRVGKNPFASDELVTQEIRNERKRAMLRENPDIEDVITYVNKKGEVVEKRRLTDEEKRRFKPKALFQSRDQEH
modifications: treated with Cln2-Cdc28 kinase
notes: not shown: glutathione S-transferase (Gst) fusion moiety of pGEX-3x
[9]
  binding result: no binding

B2: Sic1 7m (Sic1^9m with T45 and S76 restored), Gst fusion (other, yeast, UniProt P38634 1-284, looked up)
chain: B1 chain with T33A
modifications: treated with Cln2-Cdc28 kinase
notes: as for B1
[9]
  binding result: no binding
